Laboratory results reported in PubChem BioAssay (NCI).
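Method: 48-hour compound exposure of cells in 96-well plates, five concentrations, linear interpolation of endpoints. TGI marks complete inhibition of growth.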

What was measured:
Test in all cases: DTP human tumour cell line panel, 48 h
[1] = test system: HS 578T breast
[2] = test system: KM12 colon
[3] = test system: CAKI-1 renal
[4] = test system: RXF 393 renal
[5] = test system: OVCAR-5 ovarian
[6] = test system: COLO 205 colon
[7] = test system: SK-MEL-2 melanoma
[8] = test system: MOLT-4 leukemia
[9] = test system: A549 NSCLC
[10] = test system: SW-620 colon
[11] = test system: 786-0 renal
[12] = test system: UACC-62 melanoma
[13] = test system: OVCAR-8 ovarian
[14] = test system: HCT-15 colon
[15] = test system: UO-31 renal
[16] = test system: HT29 colon
[17] = test system: NCI-H522 lung
[18] = test system: MDA-MB-435
[19] = test system: HOP-92 NSCLC
[20] = test system: NCI/ADR-RES ovarian
[21] = test system: A498 renal
[22] = test system: SN12C renal
[23] = test system: MDA-N
[24] = test system: SK-MEL-28 melanoma
[25] = test system: SF-268 CNS
[26] = test system: BT-549 breast
[27] = test system: ACHN renal
[28] = test system: LOX IMVI melanoma
[29] = test system: U251 CNS
[30] = test system: OVCAR-4 ovarian
[31] = test system: MALME-3M melanoma
[32] = test system: M14 melanoma
[33] = test system: SK-OV-3 ovarian
[34] = test system: SF-295 CNS
[35] = test system: T-47D breast
[36] = test system: DU-145 prostate
[37] = test system: HCT-116 colon
[38] = test system: CCRF-CEM leukemia
[39] = test system: MDA-MB-231 breast
[40] = test system: K-562 leukemia
[41] = test system: TK-10 renal
[42] = test system: PC-3 prostate
[43] = test system: UACC-257 melanoma
[44] = test system: IGROV1 ovarian
[45] = test system: OVCAR-3 ovarian
[46] = test system: HOP-62 NSCLC
[47] = test system: SNB-19 CNS
[48] = test system: NCI-H226 lung
[49] = test system: RPMI-8226 leukemia
[50] = test system: EKVX NSCLC
[51] = test system: NCI-H23 lung
[52] = test system: SNB-75 CNS
[53] = test system: SK-MEL-5 melanoma

## O=S(=O)(Nc1nc2ccccc2n1S(=O)(=O)c1ccccc1)c1ccccc1
[1]
  TGI: > 100 µM
[2]
  TGI: > 100 µM
[3]
  TGI: > 100 µM
[4]
  TGI: > 100 µM
[5]
  TGI: > 100 µM
[6]
  TGI: > 100 µM
[7]
  TGI: > 100 µM
[8]
  TGI: > 100 µM
[9]
  TGI: > 100 µM
[10]
  TGI: > 100 µM
[11]
  TGI: > 100 µM
[12]
  TGI: > 100 µM
[13]
  TGI: > 100 µM
[14]
  TGI: > 100 µM
[15]
  TGI: > 100 µM
[16]
  TGI: > 100 µM
[17]
  TGI: > 100 µM
[18]
  TGI: > 100 µM
[19]
  TGI: > 100 µM
[20]
  TGI: > 100 µM
[21]
  TGI: > 100 µM
[22]
  TGI: > 100 µM
[23]
  TGI: > 100 µM
[24]
  TGI: > 100 µM
[25]
  TGI: > 100 µM
[26]
  TGI: > 100 µM
[27]
  TGI: 61.9 µM
[28]
  TGI: > 100 µM
[29]
  TGI: > 100 µM
[30]
  TGI: > 100 µM
[31]
  TGI: > 100 µM
[32]
  TGI: > 100 µM
[33]
  TGI: > 100 µM
[34]
  TGI: > 100 µM
[35]
  TGI: > 100 µM
[36]
  TGI: > 100 µM
[37]
  TGI: > 100 µM
[38]
  TGI: 73.8 µM
[39]
  TGI: > 100 µM
[40]
  TGI: > 100 µM
[41]
  TGI: > 100 µM
[42]
  TGI: > 100 µM
[43]
  TGI: > 100 µM
[44]
  TGI: > 100 µM
[45]
  TGI: > 100 µM
[46]
  TGI: > 100 µM
[47]
  TGI: > 100 µM
[48]
  TGI: > 100 µM
[49]
  TGI: > 100 µM
[50]
  TGI: > 100 µM
[51]
  TGI: > 100 µM
[52]
  TGI: > 100 µM
[53]
  TGI: > 100 µM
